Test results as given in patent publication US20030166932A1 (priority 2002, published 2003).

Key:
RXRα [1] = target: T1, RXRα (Homo sapiens, UniProt P19793); test: ligand binding assay
T1 sequence (P19793 1-462): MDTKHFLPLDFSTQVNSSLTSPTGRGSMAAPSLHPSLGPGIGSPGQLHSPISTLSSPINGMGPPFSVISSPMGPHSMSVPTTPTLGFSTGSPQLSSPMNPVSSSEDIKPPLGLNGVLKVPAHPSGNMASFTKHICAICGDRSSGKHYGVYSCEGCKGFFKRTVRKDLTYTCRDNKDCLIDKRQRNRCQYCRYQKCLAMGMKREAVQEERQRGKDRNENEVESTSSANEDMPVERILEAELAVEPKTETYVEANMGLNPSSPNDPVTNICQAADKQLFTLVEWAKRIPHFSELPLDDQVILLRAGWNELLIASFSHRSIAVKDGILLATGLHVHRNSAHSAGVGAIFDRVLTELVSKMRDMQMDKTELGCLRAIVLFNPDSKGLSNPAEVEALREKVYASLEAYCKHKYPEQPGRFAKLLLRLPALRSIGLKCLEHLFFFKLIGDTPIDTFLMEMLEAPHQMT
From the text: (§1) The results obtained in this assay are expressed in EC50 numbers, as they are also in the chimeric receptor transactivation assay. The results of ligand binding assay are expressed in Kd numbers.
(§2) Particularly, the transactivation data pertaining to RAR receptors were obtained in the chimeric assay, and the data pertaining to transactivation of RXR receptors were obtained in the holoreceptor transactivation assay.

RXRα [2] = target: T1, RXRα; test: holoreceptor transactivation assay; conditions: for Emax: read-out: % efficacy, RXR Trans. α
From the text: as §1, §2

RXRγ [3] = target: T2, RXRγ (UniProt P28705); test: ligand binding assay; conditions: read-out: RXR Bind Ki (nM) Y
T2 sequence (P28705 1-463): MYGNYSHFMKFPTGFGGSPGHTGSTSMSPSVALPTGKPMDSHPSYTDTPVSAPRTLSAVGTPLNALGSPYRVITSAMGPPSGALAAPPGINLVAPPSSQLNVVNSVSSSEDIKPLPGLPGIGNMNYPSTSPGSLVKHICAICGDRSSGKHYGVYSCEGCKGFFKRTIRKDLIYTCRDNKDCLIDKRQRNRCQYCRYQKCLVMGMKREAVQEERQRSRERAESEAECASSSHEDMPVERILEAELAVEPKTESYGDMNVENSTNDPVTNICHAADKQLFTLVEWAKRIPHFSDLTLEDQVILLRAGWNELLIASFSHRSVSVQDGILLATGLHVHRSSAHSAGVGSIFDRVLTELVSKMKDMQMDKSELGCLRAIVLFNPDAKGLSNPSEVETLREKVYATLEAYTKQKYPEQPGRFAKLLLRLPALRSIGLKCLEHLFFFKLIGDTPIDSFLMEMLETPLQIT

RXRβ [4] = target: T3, RXRβ (UniProt P28704); test: ligand binding assay; conditions: read-out: RXR Bind Ki (nM) β
T3 sequence (P28704 1-520): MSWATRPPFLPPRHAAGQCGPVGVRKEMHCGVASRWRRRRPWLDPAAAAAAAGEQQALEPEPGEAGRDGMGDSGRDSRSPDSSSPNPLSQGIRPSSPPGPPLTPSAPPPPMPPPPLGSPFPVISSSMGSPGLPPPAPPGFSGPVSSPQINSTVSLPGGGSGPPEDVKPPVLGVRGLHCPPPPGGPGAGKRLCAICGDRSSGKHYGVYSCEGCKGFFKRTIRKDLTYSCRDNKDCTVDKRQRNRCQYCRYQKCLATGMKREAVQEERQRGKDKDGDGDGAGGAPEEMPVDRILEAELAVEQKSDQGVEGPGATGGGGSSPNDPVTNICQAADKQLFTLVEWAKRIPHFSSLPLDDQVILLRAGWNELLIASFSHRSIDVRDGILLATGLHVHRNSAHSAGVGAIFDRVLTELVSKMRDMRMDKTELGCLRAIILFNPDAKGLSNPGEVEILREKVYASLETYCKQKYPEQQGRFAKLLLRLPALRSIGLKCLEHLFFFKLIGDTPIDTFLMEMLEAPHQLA
From the text: as §1, §2

RXRβ [5] = target: T3, RXRβ; test: holoreceptor transactivation assay; format: cell-based; conditions: for % efficacy, RXR Trans. β: relative to 10^−6 M AGN 194204; for EC50: NA = Not Active, read-out: RXR Trans. EC50 (nM) β
From the text: as §1, §2

RARβ = target: T4, RARβ (Homo sapiens, UniProt P10826); test: ligand binding assay; conditions: read-out: RAR Bind. Ki (nM) β
T4 sequence (P10826 1-455): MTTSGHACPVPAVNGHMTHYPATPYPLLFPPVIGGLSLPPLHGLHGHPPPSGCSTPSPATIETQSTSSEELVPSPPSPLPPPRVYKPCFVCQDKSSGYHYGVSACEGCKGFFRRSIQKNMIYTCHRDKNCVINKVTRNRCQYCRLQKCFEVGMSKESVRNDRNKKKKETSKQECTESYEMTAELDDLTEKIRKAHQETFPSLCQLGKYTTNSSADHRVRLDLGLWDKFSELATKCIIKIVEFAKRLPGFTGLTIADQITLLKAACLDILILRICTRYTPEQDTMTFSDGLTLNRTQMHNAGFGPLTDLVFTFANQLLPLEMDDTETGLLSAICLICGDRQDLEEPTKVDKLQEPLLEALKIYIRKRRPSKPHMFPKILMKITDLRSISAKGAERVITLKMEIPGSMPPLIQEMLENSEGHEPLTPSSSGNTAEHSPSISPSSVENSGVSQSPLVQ
From the text: as §1, §2

RXRγ [6] = target: T2, RXRγ; test: holoreceptor transactivation assay; format: cell-based; conditions: for EC50: NA = Not Active, read-out: RXR Trans. EC50 (nM) Y; for % efficacy, RXR Trans. Y: relative to 10^−6 M AGN 194204
From the text: as §1, §2

RARγ = target: T5, RARγ (Homo sapiens, UniProt P13631); test: ligand binding assay; conditions: read-out: RAR Bind. Ki (nM) Y
T5 sequence (P13631 1-454): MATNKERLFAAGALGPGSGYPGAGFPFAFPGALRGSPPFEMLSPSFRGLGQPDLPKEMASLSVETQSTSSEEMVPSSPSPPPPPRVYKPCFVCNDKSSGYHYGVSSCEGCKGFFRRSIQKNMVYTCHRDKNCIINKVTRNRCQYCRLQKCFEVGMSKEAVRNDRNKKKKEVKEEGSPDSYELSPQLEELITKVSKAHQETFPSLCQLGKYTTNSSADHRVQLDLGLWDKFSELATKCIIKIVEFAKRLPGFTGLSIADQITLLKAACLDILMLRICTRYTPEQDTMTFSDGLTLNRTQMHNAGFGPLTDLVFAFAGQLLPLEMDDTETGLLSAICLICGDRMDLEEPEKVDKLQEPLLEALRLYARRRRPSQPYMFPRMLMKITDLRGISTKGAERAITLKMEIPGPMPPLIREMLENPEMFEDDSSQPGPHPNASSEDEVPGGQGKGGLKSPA
From the text: as §1, §2

Structure (SMILES) | Ki (RXRα [1]) [nM] | EC50 (RXRα [2]) [nM] | Emax (RXRα [2]) [%] | Ki (RXRγ [3]) [nM] | Ki (RXRβ [4]) [nM] | % efficacy, RXR Trans. β (RXRβ [5]) | Ki (RARβ) [nM] | EC50 (RXRγ [6]) [nM] | % efficacy, RXR Trans. Y (RXRγ [6]) | Ki (RARγ) [nM] | EC50 (RXRβ [5]) [nM]
CCN(c1ccc(C(=O)O)cc1)c1cc2c(cc1C)C(C(C)(C)C)=CCC2(C)C [Compound 60, 4-[Ethyl-(5-t-butyl-3,8,8-trimethyl-7,8-dihydronaphthalen-2-yl)amino]benzoic acid] | 64 | 72 | 88 | 101 | 426 | (60) % | > 10000 | 182 | (124) % | – | –
CCCCOc1cc2c(cc1N(CC)c1ccc(C(=O)O)cc1)C(C(C)C)=CCC2(C)C [Compound 152, 4-[(3-n-Butoxy-8-isopropyl-5,5-dimethyl-5,6-dihydronaphthalen-2-yl)ethylamino]benzoic acid] | 29 | – | – | 437 | 136 | – | 2300 | – | – | – | –
CCN(c1ccc(C(=O)O)cc1)c1cc2c(cc1OC(C)C)C(C)(C)CC=C2C(C)C [Compound 151, 4-[Ethyl-(3-isopropoxy-5,5-dimethyl-8-isopropyl-5,6-dihydronaphthalen-2-yl)amino]benzoic acid] | 54 | – | – | 248 | 155 | – | 1200 | – | – | > 10000 | –
CC1=CCC(C)(C)c2cc(N(C)c3ccc(C(=O)O)cc3)ccc21 [Compound 67, 4-[Methyl-(5,8,8-trimethyl-7,8-dihydro-naphthalen-2-yl)-amino]-benzoic acid] | 666 | – | – | 1300 | > 1000 | – | > 10000 | – | – | – | –
CCN(c1ccc(C(=O)O)cc1)c1cc2c(cc1OCc1ccccc1)C(C)(C)CC=C2C(C)C [Compound 154, 4-[(3-Benzyloxy-8-isopropyl-5,5-dimethyl-5,6-dihydronaphthalen-2-yl)ethylamino]benzoic acid] | 3 | – | – | 41 | 19 | – | 1800 | – | – | 6200 | –
CCN(c1ccc(C(=O)O)cc1)c1cc2c(cc1OCc1ccccc1)C(C)(C)CC=C2C(C)(C)C [Compound 158] | 4 | – | – | 161 | 3 | – | 374 | – | – | 881 | –
CCCN(c1ccc(C(=O)O)cc1)c1cc2c(cc1C)C(C(C)C)=CCC2(C)C [Compound 54, 4-[n-Propyl-(5-isopropyl-3,8,8-trimethyl-7,8-dihydronaphthalen-2-yl)lamino]benzoic acid] | 485 | 378 | 66 | – | > 1000 | (40) % | > 10000 | – | (85) % | > 10000 | > 1000
CCCN(c1ccc(C(=O)O)cc1)c1ccc2c(c1)C(C(C)(C)C)=CCC2(C)C [Compound 89] | 7 | 1 | 108 | 8 | 34 | (93) % | > 10000 | 1 | 105) % | – | 8
CCN(c1ccc(C(=O)O)cc1)c1cc2c(cc1C)C(C)(C)CC=C2C(C)C [Compound 25, 4-[Ethyl(8-isopropyl-3,5,5-trimethyl-5,6-dihydronaphthalen-2-yl)amino]benzoic acid] | 2 | < 0.1 | 97 | – | 20 | (96) % | 6400 | 0.2 | (105) % | 4400 | 0.9
CCN(c1ccc(C(=O)O)cc1)c1cc2c(cc1OCc1cc(C(C)(C)C)cc(C(C)(C)C)c1)C(C)(C)CC=C2C(C)C [Compound 156, 4-{[3-(3,5-di-t-butylbenzyloxy)-8-isopropyl-5,5-dimethyl-5,6-dihydronaphthalen-2-yl]ethylamino}benzoic acid] | 804 | – | – | > 1000 | > 1000 | – | 1500 | – | – | 4200 | –
CCN(c1ccc(C(=O)O)cc1)c1cc2c(cc1OCc1ccc(C)cc1)C(C)(C)CC=C2C(C)C [Compound 155, 4-{Ethyl-[8-isopropyl-5,5-dimethyl-3-(4-methylbenzyloxy)-5,6-dihydronaphthalen-2-yl]amino}benzoic acid] | 3 | – | – | 398 | 334 | – | 1400 | – | – | 2900 | –
CCCOc1cc2c(cc1N(CC)c1ccc(C(=O)O)cc1)C(C(C)C)=CCC2(C)C [Compound 150, 4-[Ethyl-(8-isopropyl-5,5-dimethyl-3-n-propoxy-5,6-dihydronaphthalen-2-yl)amino]benzoic acid] | 61 | – | – | 352 | 208 | – | 3800 | – | – | 7900 | –
CCN(c1ccc(C(=O)O)cc1)c1cc2c(cc1C)C(C)=CCC2(C)C [Compound 45, 4-[Ethyl(3,5,8,8-tetramethyl-7,8-dihydronaphthalen-2-yl)amino]benzoic acid] | > 1000 | – | 50 | > 1000 | > 1000 | – | > 10000 | > 1000 | (25) % | > 10000 | –
CC1=CCC(C)(C)c2cc(N(C)c3ccc(C(=O)O)cc3)c(C)cc21 [Compound 44, 4-[Methyl(3,5,8,8-tetramethyl-7,8-dihydronaphthalen-2-yl)amino]benzoic acid] | > 1000 | > 1000 | 30 | > 1000 | > 1000 | – | > 10000 | > 1000 | (15) % | > 10000 | –
